Source: US6441028B2, “Microbicidal compositions” (Bayer Aktiengesellschaft, priority 1995, dated 2002)

Tests used:
[1] = tested on: Erysiphe graminis; test: Activity against Erysiphe graminis in barley (residual-protective and systemic action); type: in vivo; conditions: mixture of the labelled component I with component II; barley; a) spray 0.02% of active ingredient, b) 0.002% based on soil volume; assessed 12 days after infection
Experimental: The infected plants are placed in a greenhouse at 22°. The fungus infestation is assessed 12 days after the infection. […] 48 hours later, the plants are dusted with conidia of the fungus. The infected plants are placed in a greenhouse at 22°. The fungus infestation is assessed 12 days after the infection.

[2] = tested on: Puccinia recondita; test: Activity against Puccinia recondita in wheat (residual-protective and systemic action); type: in vivo; conditions: mixture of the labelled component I with component II; wheat; a) spray 0.02% of active ingredient, b) 0.006% based on soil volume; assessed 12 days after infection
[3] = tested on: Fusarium nivale; test: Activity against Fusarium nivale in rye (seed dressing, field); type: in vivo; conditions: mixture of the labelled component I with component II, rye cv. Tetrahell seed dressing, 20 or 6 ppm of a.i. based on seed weight
Experimental: which has been infected naturally with Fusarium nivale is dressed with the test fungicide in a roller mixer, the following concentrations being used: 20 or 6 ppm of a.i. (based on the seed weight). The infected and treated rye is sown in the open in October in plots of 3 m length and 6 seed rows, using a seed drill. 3 replications per concentration. Until the disease level is evaluated, the experimental field is subjected to the field conditions of normal crop management (preferably in a region with unbroken snow cover during the winter months). To assess the phytotoxicity, seedling emergence is scored in autumn and plant density/tillering in spring. To assess the activity of the active ingredient, the percentage of Fusarium-infected plants is evaluated early in the year, immediately after the snows have melted.

[4] = tested on: Plasmopara viticola; test: Activity against Plasmopara viticola in grapevines; conditions: mixture of the labelled component I with component II = ofurace (II E), oxadixyl (II F), or in particular metalaxyl (II A) or R-metalaxyl (II B); grapevine seedlings; 0.02% of active ingredient; assessed 6 days after infection
Experimental: Grapevine seedlings at the 4-to-5-leaf stage are sprayed to drip point with an aqueous spray mixture prepared with a wettable powder of the active ingredient mixture (0.02% of active ingredient) and, 24 hours later, infected with a sporangia suspension of the fungus. The fungus infestation is assessed 6 days after infection, during which time a relative atmospheric humidity of 95 to 100% and a temperature of 20° are maintained.

[5] = tested on: Phytophthora; conditions: mixture of the labelled component I, in particular in combination with metalaxyl (II A), benalaxyl (II D) or R-metalaxyl (II B); potato (Bintje); a) spray 0.02% of active ingredient, b) 0.002% based on soil volume; 5 days incubation
Experimental: 2-3 week old potato plants (Bintje variety) are grown for 3 weeks and then sprayed with a spray mixture (0.02% of active ingredient) prepared with a wettable powder of the active ingredient. After 24 hours, the treated plants are infected with a sporangia suspension of the fungus. The fungus infestation is assessed after the infected plants have been incubated for 5 days at a relative atmospheric humidity of 90-100% and 20° C.
A spray mixture (0.002% of active ingredient based on the soil volume) prepared with a wettable powder of the active ingredient is poured next to 2-3 week old potato plants (Bintje variety) which have been grown for 3 weeks. […] After 48 hours, the treated plants are infected with a sporangia suspension of the fungus. Fungus infestation is assessed after the infected plants have been incubated for 5 days at a relative atmospheric humidity of 90-100% and 20° C.

[6] = tested on: Botrytis cinerea; test: Activity against Botrytis cinerea on apple fruits (residual-protective action); type: in vivo; conditions: mixture of the labelled component I with component II = furalaxyl (II C), metalaxyl (II A) or R-metalaxyl (II B); damaged apples; 0.02% of active ingredient; one week incubation
Experimental: The treated fruits are subsequently inoculated with a spore suspension of the fungus and incubated for one week at high atmospheric humidity and approximately 20° C. The fungicidal activity of the test substance is deduced from the number of the sites of damage where rotting has been observed.

[7] = tested on: Phytophthora infestans; type: in vivo; conditions: mixture of the labelled component I with component II = oxadixyl (II F), ofurace (II E), or in particular metalaxyl (II A) or R-metalaxyl (II B); tomato cv. Roter Gnom; a) curative 200 ppm, b) preventive-systemic 60 ppm relative to soil volume
[8] = tested on: Cercospora arachidicola; test: Residual-protective action against Cercospora arachidicola in groundnuts; type: in vivo; conditions: mixture of the labelled component I with component II; groundnut plants; 0.02% of active ingredient; assessed 12 days after infection
Experimental: The plants are incubated for 72 hours at 21° and high atmospheric humidity and subsequently placed in a greenhouse until the typical foliar lesions appear. The activity of the active ingredient is assessed 12 days after the infection on the basis of number and size of the foliar lesions.

[9] = tested on: Septoria nodorum; test: Activity against Septoria nodorum in wheat; type: in vivo; conditions: mixture of the labelled component I with component II; wheat 3-leaf stage; 60 ppm of a.i.; assessed 13 days after infection
Experimental: 13 days after the infection, the fungus infestation is assessed.

SMILES: CON=C(C(=O)OC)c1ccccc1CON=C(C)c1ccc2c(c1)OC(F)(F)O2 [(6), methyl 2-[α-{[(α-methyl-3,4-(difluoromethylenedioxy)benzyl)imino]-oxy}-o-tolyl]glyoxylate O-methyloxime]
- synergistic effect of active ingredient mixture (fungus infestation) [1]: good synergistic effect
- synergistic effect of active ingredient mixture (fungus infestation) [2]: good synergistic effect
- synergistic effect of active ingredient mixture (percentage of Fusarium-infected plants) [3]: good synergistic effect
- synergistic effect of active ingredient mixture (fungus infestation) [4]: marked synergistic effect
- synergistic effect of active ingredient mixture (fungus infestation) [5]: good synergistic effect

SMILES: CON=C(C(=O)OC)c1ccccc1CON=C(c1ccc(F)cc1)C1CC1 [(09), methyl 2-[α-{[(α-cyclopropyl-4-fluorobenzyl)imino]oxy}-o-tolyl]glyoxylate O-methyloxime]
- activity of active ingredient mixture (number of sites of damage with rotting) [6]: markedly increased activity
- synergistic effect of active ingredient mixture (fungus infestation) [1]: good synergistic effect
- synergistic effect of active ingredient mixture (fungus infestation) [2]: good synergistic effect

SMILES: COC=C(C(=O)OC)c1ccccc1CON=C(C)c1ccc2c(c1)OCO2 [(12), methyl 3-methoxy-2-[α-{[(α-methyl-3,4-methylenedioxybenzyl)imino]oxy}-o-tolyl]acrylate]
- synergistic effect of active ingredient mixture (fungus infestation) [4]: marked synergistic effect
- synergistic effect of active ingredient mixture (number and size of foliar lesions) [7]: good synergistic effect
- synergistic effect of active ingredient mixture (fungus infestation) [5]: good synergistic effect

SMILES: CON=C(C(=O)OC)c1ccccc1CON=C(c1ccc(Cl)cc1)C1CC1 [(15), methyl 2-[α-{[(α-cyclopropyl-4-chlorobenzyl)imino]oxy}-o-tolyl]glyoxylate O-methyloxime]
- activity of active ingredient mixture (number and size of foliar lesions) [8]: markedly increased activity
- activity of active ingredient mixture (number of sites of damage with rotting) [6]: markedly increased activity
- synergistic effect of active ingredient mixture (fungus infestation) [1]: good synergistic effect
- synergistic effect of active ingredient mixture (fungus infestation) [2]: good synergistic effect
- synergistic effect of active ingredient mixture (fungus infestation) [4]: marked synergistic effect
- synergistic effect of active ingredient mixture (number and size of foliar lesions) [7]: good synergistic effect
- synergistic effect of active ingredient mixture (fungus infestation) [5]: good synergistic effect

SMILES: COC=C(C(=O)OC)c1ccccc1CON=C(C)c1cccc(OC(F)(F)F)c1 [(18), methyl 3-methoxy-2-[α-{[(α-methyl-3-trifluoromethoxybenzyl)imino]oxy}-o-tolyl]acrylate]
- activity of active ingredient mixture (number and size of foliar lesions) [8]: markedly increased activity
- activity of active ingredient mixture (number of sites of damage with rotting) [6]: markedly increased activity
- synergistic effect of active ingredient mixture (fungus infestation) [1]: good synergistic effect
- synergistic effect of active ingredient mixture (fungus infestation) [2]: good synergistic effect
- synergistic effect of active ingredient mixture (percentage of Fusarium-infected plants) [3]: good synergistic effect
- synergistic effect of active ingredient mixture (fungus infestation) [4]: marked synergistic effect
- synergistic effect of active ingredient mixture (fungus infestation) [5]: good synergistic effect

SMILES: COC=C(C(=O)OC)c1ccccc1CON=C(C)c1cccc(C(F)(F)F)c1 [(24), methyl 3-methoxy-2-[α-{[(α-methyl-3-trifluoromethylbenzyl)imino]oxy}-o-tolyl]acrylate]
- activity of active ingredient mixture (number and size of foliar lesions) [8]: markedly increased activity
- activity of active ingredient mixture (number of sites of damage with rotting) [6]: markedly increased activity
- activity of active ingredient mixture (fungus infestation) [9]: markedly increased activity
- synergistic effect of active ingredient mixture (fungus infestation) [1]: good synergistic effect
- synergistic effect of active ingredient mixture (number and size of foliar lesions) [7]: good synergistic effect
- synergistic effect of active ingredient mixture (fungus infestation) [5]: good synergistic effect

SMILES: CON=C(C(=O)OC)c1ccccc1CON=C(C)c1ccc(Cl)cc1 [(25), methyl 2-[α-{[(α-methyl-4-chlorobenzyl)imino]oxy}-o-tolyl]glyoxylate O-methyloxime]
- activity of active ingredient mixture (fungus infestation) [9]: markedly increased activity
- synergistic effect of active ingredient mixture (fungus infestation) [1]: good synergistic effect

SMILES: COC=C(C(=O)OC)c1ccccc1CON=C(C)c1ccc(Cl)cc1 [(26), methyl 3-methoxy-2-[α-{[(α-methyl-4-chlorobenzyl)imino]oxy}-o-tolyl]acrylate]
- activity of active ingredient mixture (number and size of foliar lesions) [8]: markedly increased activity
- synergistic effect of active ingredient mixture (percentage of Fusarium-infected plants) [3]: good synergistic effect

SMILES: COC=C(C(=O)OC)c1ccccc1CON=C(C)c1ccc2c(c1)OC(F)(F)O2 [(29), methyl 3-methoxy-2-[α-{[(α-methyl-3,4-(difluoromethylenedioxy)benzyl)-imino]oxy}-o-tolyl]acrylate]
- synergistic effect of active ingredient mixture (fungus infestation) [2]: good synergistic effect

SMILES: CON=C(C(=O)OC)c1ccccc1CON=C(C)c1cccc(C(F)(F)F)c1 [(35), methyl 2-[α-{[(α-methyl-3-trifluoromethylbenzyl)imino]oxy}-o-tolyl]glyoxylate O-methyloxime]
- activity of active ingredient mixture (number of sites of damage with rotting) [6]: markedly increased activity
- activity of active ingredient mixture (fungus infestation) [9]: markedly increased activity
- synergistic effect of active ingredient mixture (fungus infestation) [1]: good synergistic effect
- synergistic effect of active ingredient mixture (fungus infestation) [2]: good synergistic effect
- synergistic effect of active ingredient mixture (fungus infestation) [4]: marked synergistic effect
- synergistic effect of active ingredient mixture (number and size of foliar lesions) [7]: good synergistic effect
- synergistic effect of active ingredient mixture (fungus infestation) [5]: good synergistic effect

SMILES: COC=C(C(=O)OC)c1ccccc1CON=C(c1ccc(Cl)cc1)C1CC1 [(36), methyl 3-methoxy-2-[α-{[(α-cyclopropyl-4-chlorobenzyl)imino]oxy}-o-tolyl]acrylate]
- activity of active ingredient mixture (number and size of foliar lesions) [8]: markedly increased activity
- activity of active ingredient mixture (number of sites of damage with rotting) [6]: markedly increased activity
- activity of active ingredient mixture (fungus infestation) [9]: markedly increased activity
- synergistic effect of active ingredient mixture (fungus infestation) [1]: good synergistic effect
- synergistic effect of active ingredient mixture (number and size of foliar lesions) [7]: good synergistic effect

SMILES: CON=C(C(=O)OC)c1ccccc1CON=C(c1ccc(C(F)(F)F)cc1)C1CC1 [(37)]
- synergistic effect of active ingredient mixture (fungus infestation) [1]: good synergistic effect

SMILES: CON=C(C(=O)OC)c1ccccc1CON=C(c1ccc(OC(F)(F)F)cc1)C1CC1 [(38), methyl 2-[α-{[(α-cyclopropyl-4-trifluoromethoxybenzyl)imino]oxy}-o-tolyl]glyoxylate O-methyloxime]
- activity of active ingredient mixture (number and size of foliar lesions) [8]: markedly increased activity
- synergistic effect of active ingredient mixture (percentage of Fusarium-infected plants) [3]: good synergistic effect
